Measured values taken from US10071034B2, “Solvent compositions” (Amyris, Inc., priority 2014, dated 2018).

Experiment: Oxidative stability
Format: physicochemical
Protocol: For each sample, a test composition was stored for 104 weeks at 25° C. The amount of composition remaining was tested and compared to the amount at the initial time. Further samples were stored for 6 days at 60° C. The amount of composition remaining was tested and compared to the amount at the initial time.

C=C(C)[C@H]1CC=C(C)CC1 [d-limonene]
amount of composition remaining compared to initial (6 Days @ 60° C.): 52.3%
amount of composition remaining compared to initial (104 Weeks @ 25° C.): 24.0%
oxidative stability in comparison (d-limonene versus Example 2 composition): less than that of the present solvent embodiment
